Reference: patent US10138274B2, “Crystal of cyclic peptide compound, preparation method for same and uses thereof” (SHANGHAI TECHWELL BIOPHARMACEUTICAL CO., LTD, priority 2014, dated 2018)
Numbered stars: 1 amine (or outer) side, 2 acyl side, 3 side chain; on linkers, the order of the positions; unused ones are H or OH. Bridge positions count the residues as written; N and C are the ends. Square brackets hold non-standard residues; d marks the D form. Peptide text beside a SMILES is read from it. * marks the point of attachment. hTyr(3S-OH,4S-OH,3'-OSO3H) = N[C@H](C(=O)O)[C@H](O)[C@@H](O)c1ccc(O)c(OS(=O)(=O)O)c1; Orn(4R-OH,5R-OH) = O=C([C@H](C[C@@H](O)[C@@H](O)N[*:3])N[*:1])[*:2]; Pro(3S-OH,4S-Me) = C[C@H]1CN[C@H](C(=O)O)[C@H]1O; X1 = CCCCCOc1ccc(-c2cc(-c3ccc(C(=O)*)cc3)no2)cc1; Gln(3R-OH) = NC(=O)C[C@@H](O)[C@H](N)C(=O)O; Hyp = O=C(O)[C@@H]1C[C@@H](O)CN1

Assay: Purity and stability test: samples sealed at 25° C. for 30 days, purity by HPLC
Format: physicochemical
Details: for Purity of initial sample: before storage, HPLC purity (baseline of the stability test); for Purity of sample after stored at 25° C. for 30 days: sealed, HPLC purity
Text: High performance liquid chromatography (HPLC) is a common method for determining the purity of a compound, wherein a liquid is used as the mobile phase and a high-pressure transfusion system is used for pumping the mobile phase, such as single solvents with different polarities, a mixture of solvents at different proportions, or buffers, into a column packed with a stationary phase. Each component is separated in the column, and then enters into a detector for detection, thereby analyzing a sample. In the present invention, HPLC is used for determining the purity of the compound of formula I and studying the stability of a sample. The HPLC method is as follows:
Analysis Column: YMC-ODS 250×4.6 mm, 5 μm;
Mobile phase: acetonitrile:phosphate buffer (pH 3.0)=45:70;
Column temperature: 35° C.;
Diluent: aqueous phosphate buffer;
Detection wavelength: 210 nm;
In this Example, the purity and stability of the samples obtained in Comparative Examples and Examples were compared. The method used is as follows:
Crystals A-C of the compound of formula I prepared in Examples 2, 11 and 15, the crystal of B82 type obtained in Comparative Example 1 and the amorphous solid obtained in Example 1 were taken respectively and sealed at 25° C. for 30 days. And then the content of impurities in the sample was analyzed. Results of comparing the stability of crystals A-C of the compound of formula I according to the present invention, the crystal of B82 type and the amorphous solid are shown in the following table: […]

SMILES	Purity of initial sample	Purity of sample after stored at 25° C. for 30 days	stability compared with the B82-type crystal and the amorphous solid (result in words)
CCCCCOc1ccc(-c2cc(-c3ccc(C(=O)N[C@H]4C[C@@H](O)[C@@H](O)NC(=O)[C@@H]5[C@@H](O)[C@@H](C)CN5C(=O)[C@H]([C@H](O)CC(N)=O)NC(=O)[C@H]([C@H](O)[C@@H](O)c5ccc(O)c(OS(=O)(=O)[O-])c5)NC(=O)[C@@H]5C[C@@H](O)CN5C(=O)[C@H]([C@@H](C)O)NC4=O)cc3)no2)cc1.[Na+] [B82-type Crystal, Sodium 5-[(1S,2S)-2-[(3S,6S,9S,11R,15S,18S,20R,21R,24S,25S,26S)-3-[(R)-2-carbamoyl-1-hydroxyethyl]-11,20,21,25-tetrahydroxy-15-[(R)-1-hydroxyethyl]-26-methyl-2,5,8,14,17,23-hexaoxo-18-[4-[5-(4-pentoxyphenyl)isoxazol-3-yl]benzoylamino]-1,4,7,13,16,22-hexaazatricyclo[22.3.0.0^9,13]heptacosan-6-yl]-1,2-dihydroxyethyl]-2-hydroxy phenyl sulfate., reference compound] (X1-[Orn(4R-OH,5R-OH)]T[Hyp][hTyr(3S-OH,4S-OH,3'-OSO3H)][Gln(3R-OH)][Pro(3S-OH,4S-Me)]; lactam 1-C)	99.50%	96.98%	
CCCCCOc1ccc(-c2cc(-c3ccc(C(=O)N[C@H]4C[C@@H](O)[C@@H](O)NC(=O)[C@@H]5[C@@H](O)[C@@H](C)CN5C(=O)[C@H]([C@H](O)CC(N)=O)NC(=O)[C@H]([C@H](O)[C@@H](O)c5ccc(O)c(OS(=O)(=O)[O-])c5)NC(=O)[C@@H]5C[C@@H](O)CN5C(=O)[C@H]([C@@H](C)O)NC4=O)cc3)no2)cc1.[Na+] [Crystal C, Sodium 5-[(1S,2S)-2-[(3S,6S,9S,11R,15S,18S,20R,21R,24S,25S,26S)-3-[(R)-2-carbamoyl-1-hydroxyethyl]-11,20,21,25-tetrahydroxy-15-[(R)-1-hydroxyethyl]-26-methyl-2,5,8,14,17,23-hexaoxo-18-[4-[5-(4-pentoxyphenyl)isoxazol-3-yl]benzoylamino]-1,4,7,13,16,22-hexaazatricyclo[22.3.0.0^9,13]heptacosan-6-yl]-1,2-dihydroxyethyl]-2-hydroxy phenyl sulfate.] (X1-[Orn(4R-OH,5R-OH)]T[Hyp][hTyr(3S-OH,4S-OH,3'-OSO3H)][Gln(3R-OH)][Pro(3S-OH,4S-Me)]; lactam 1-C)	99.64%	99.43%	
CCCCCOc1ccc(-c2cc(-c3ccc(C(=O)N[C@H]4C[C@@H](O)[C@@H](O)NC(=O)[C@@H]5[C@@H](O)[C@@H](C)CN5C(=O)[C@H]([C@H](O)CC(N)=O)NC(=O)[C@H]([C@H](O)[C@@H](O)c5ccc(O)c(OS(=O)(=O)[O-])c5)NC(=O)[C@@H]5C[C@@H](O)CN5C(=O)[C@H]([C@@H](C)O)NC4=O)cc3)no2)cc1.[Na+] [Crystal A, Sodium 5-[(1S,2S)-2-[(3S,6S,9S,11R,15S,18S,20R,21R,24S,25S,26S)-3-[(R)-2-carbamoyl-1-hydroxyethyl]-11,20,21,25-tetrahydroxy-15-[(R)-1-hydroxyethyl]-26-methyl-2,5,8,14,17,23-hexaoxo-18-[4-[5-(4-pentoxyphenyl)isoxazol-3-yl]benzoylamino]-1,4,7,13,16,22-hexaazatricyclo[22.3.0.0^9,13]heptacosan-6-yl]-1,2-dihydroxyethyl]-2-hydroxy phenyl sulfate.] (X1-[Orn(4R-OH,5R-OH)]T[Hyp][hTyr(3S-OH,4S-OH,3'-OSO3H)][Gln(3R-OH)][Pro(3S-OH,4S-Me)]; lactam 1-C)	99.68%	99.65%	significantly superior than that of the crystal of B82 type
CCCCCOc1ccc(-c2cc(-c3ccc(C(=O)N[C@H]4C[C@@H](O)[C@@H](O)NC(=O)[C@@H]5[C@@H](O)[C@@H](C)CN5C(=O)[C@H]([C@H](O)CC(N)=O)NC(=O)[C@H]([C@H](O)[C@@H](O)c5ccc(O)c(OS(=O)(=O)[O-])c5)NC(=O)[C@@H]5C[C@@H](O)CN5C(=O)[C@H]([C@@H](C)O)NC4=O)cc3)no2)cc1.[Na+] [Amorphous solid, Sodium 5-[(1S,2S)-2-[(3S,6S,9S,11R,15S,18S,20R,21R,24S,25S,26S)-3-[(R)-2-carbamoyl-1-hydroxyethyl]-11,20,21,25-tetrahydroxy-15-[(R)-1-hydroxyethyl]-26-methyl-2,5,8,14,17,23-hexaoxo-18-[4-[5-(4-pentoxyphenyl)isoxazol-3-yl]benzoylamino]-1,4,7,13,16,22-hexaazatricyclo[22.3.0.0^9,13]heptacosan-6-yl]-1,2-dihydroxyethyl]-2-hydroxy phenyl sulfate., reference compound] (X1-[Orn(4R-OH,5R-OH)]T[Hyp][hTyr(3S-OH,4S-OH,3'-OSO3H)][Gln(3R-OH)][Pro(3S-OH,4S-Me)]; lactam 1-C)	99.38%	89.27%	
CCCCCOc1ccc(-c2cc(-c3ccc(C(=O)N[C@H]4C[C@@H](O)[C@@H](O)NC(=O)[C@@H]5[C@@H](O)[C@@H](C)CN5C(=O)[C@H]([C@H](O)CC(N)=O)NC(=O)[C@H]([C@H](O)[C@@H](O)c5ccc(O)c(OS(=O)(=O)[O-])c5)NC(=O)[C@@H]5C[C@@H](O)CN5C(=O)[C@H]([C@@H](C)O)NC4=O)cc3)no2)cc1.[Na+] [Crystal B, Sodium 5-[(1S,2S)-2-[(3S,6S,9S,11R,15S,18S,20R,21R,24S,25S,26S)-3-[(R)-2-carbamoyl-1-hydroxyethyl]-11,20,21,25-tetrahydroxy-15-[(R)-1-hydroxyethyl]-26-methyl-2,5,8,14,17,23-hexaoxo-18-[4-[5-(4-pentoxyphenyl)isoxazol-3-yl]benzoylamino]-1,4,7,13,16,22-hexaazatricyclo[22.3.0.0^9,13]heptacosan-6-yl]-1,2-dihydroxyethyl]-2-hydroxy phenyl sulfate.] (X1-[Orn(4R-OH,5R-OH)]T[Hyp][hTyr(3S-OH,4S-OH,3'-OSO3H)][Gln(3R-OH)][Pro(3S-OH,4S-Me)]; lactam 1-C)	99.55%	99.50%	
